Laboratory results reported in publication PMC8609519, “Potent Inhibitor of Human Trypsins from the Aeruginosin Family of Natural Products” (ACS Chemical Biology, 2021).
“Also recorded” adds a separate entry of the source.

Key:
human thrombin = biological target: T1, human thrombin (Homo sapiens, UniProt P00734); test: Serine protease inhibition, chromogenic substrate S-2238; format: biochemical; settings: read-out: IC50, human thrombin, highest final concentration 12.5 μM
T1 construct: purchased Sigma
Experimental: (§1) Recombinant trypsinogens-1, -2, and -3 were produced inEscherichia coliand activated to trypsin-1, -2, and -3 as described previously.[45] The enzyme inhibitory activity of suomilide was determined in 96-well plates by adding 10 μL of diluted suomilide (0.21–3400 nM, diluted in ultra-purified water, containing up to 0.027% DMSO), 15 μL of 0.1% bovine serum albumin in 50 mM Tris-buffer saline (BSA/TBS), and 25 μL of each trypsin (1.88 nM). 10 μL of ultra-purified water was used as a control. […] Preincubation of suomilide with trypsin isoenzymes prior to the addition of the substrate was required for maximal inhibition (data not shown). Thus, suomilide was preincubated with trypsins at room temperature for 30 min before the addition of 50 μL of 0.2 mM chromogenic substrate S-2222 (ChromogeniX) in ultra-purified water. The change of absorbance at 405 nm was followed for 15 min (VICTOR X4 multilabel plate reader, PerkinElmer). The experiment was performed three times, each with two replicates (n = 3). The absorbance change during the phase of the substrate reaction in which the absorbance of the control reaction increased linearly over time was determined. […] The IC50 values were estimated using Quest Graph, and the standard error was calculated using MS Excel 2013.

human urokinase = biological target: T2, human urokinase (Homo sapiens, UniProt P00749); test: Serine protease inhibition, urokinase from human kidney cells; format: biochemical; settings: read-out: IC50, human urokinase
T2 construct: purchased Sigma; host or cells: human kidney cells
Experimental: as §1

human plasma kallikrein = biological target: T3, human plasma kallikrein (Homo sapiens, UniProt P03952); test: Serine protease inhibition, chromogenic substrate S-2302; format: biochemical; settings: read-out: IC50, human plasma kallikrein
T3 construct: purchased Sigma
Experimental: as §1

human Factor Xa = biological target: T4, human Factor Xa (Homo sapiens, UniProt P00742); test: Serine protease inhibition, chromogenic substrate S-2222; format: biochemical; settings: read-out: IC50, human Factor Xa
T4 construct: purchased Sigma
Experimental: (§2) Recombinant trypsinogens-1, -2, and -3 were produced inEscherichia coliand activated to trypsin-1, -2, and -3 as described previously.[45] The enzyme inhibitory activity of suomilide was determined in 96-well plates by adding 10 μL of diluted suomilide (0.21–3400 nM, diluted in ultra-purified water, containing up to 0.027% DMSO), 15 μL of 0.1% bovine serum albumin in 50 mM Tris-buffer saline (BSA/TBS), and 25 μL of each trypsin (1.88 nM). 10 μL of ultra-purified water was used as a control. […] Preincubation of suomilide with trypsin isoenzymes prior to the addition of the substrate was required for maximal inhibition (data not shown). Thus, suomilide was preincubated with trypsins at room temperature for 30 min before the addition of 50 μL of 0.2 mM chromogenic substrate S-2222 (ChromogeniX) in ultra-purified water. The change of absorbance at 405 nm was followed for 15 min (VICTOR X4 multilabel plate reader, PerkinElmer). The experiment was performed three times, each with two replicates (n = 3). The absorbance change during the phase of the substrate reaction in which the absorbance of the control reaction increased linearly over time was determined. The same experiment was performed with plasmin (Sigma) (15 nM) with chromogenic substrate S-2251 (ChromogeniX); plasma KLK (Sigma) (20 nM) with substrate ChromogeniX S-2302 (ChromogeniX); Factor Xa (Sigma) (3 nM) with substrate S-2222; and thrombin (Sigma) (1 nM) with substrate S-2238 (ChromogeniX). Except for urokinase from human kidney cells (Sigma) (125 IU), 15 μL of BSA/TBS with 0.9% NaCl was used. Nine 4-fold dilutions of suomilide were prepared, with 12.5 μM being the highest final concentration. The IC50 values were estimated using Quest Graph, and the standard error was calculated using MS Excel 2013.

trypsin-3 [1] = biological target: T5, trypsin-3 (Homo sapiens, UniProt P35030); test: as above; format: biochemical; settings: read-out: IC50, trypsin-3; 30 min preincubation, substrate S-2222, n = 3
T5 construct: made in house; host or cells: Escherichia coli
T5 sequence (P35030 81-304 limits assumed): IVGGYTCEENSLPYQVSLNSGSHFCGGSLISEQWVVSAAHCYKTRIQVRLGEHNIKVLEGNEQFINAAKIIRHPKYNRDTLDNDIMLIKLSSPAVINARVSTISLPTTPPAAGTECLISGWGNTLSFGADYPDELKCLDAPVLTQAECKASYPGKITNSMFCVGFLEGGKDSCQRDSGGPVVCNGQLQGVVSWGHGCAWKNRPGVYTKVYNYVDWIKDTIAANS
Experimental: as §2

[2] = biological target: T6, recombinant human trypsin-2 (Homo sapiens, UniProt P07478); test: as above; format: biochemical; settings: read-out: IC50, trypsin-2; 30 min preincubation, substrate S-2222, n = 3
T6 construct: made in house; host or cells: Escherichia coli
Experimental: as §2

trypsin-1 [3] = biological target: T7, trypsin-1 (Homo sapiens, UniProt P07477); test: as above; format: biochemical; settings: read-out: IC50, trypsin-1; 30 min preincubation, substrate S-2222, n = 3
T7 construct: made in house; host or cells: Escherichia coli
Experimental: as §2

[4] = test system: unspecified but most likely non-human trypsin isoenzyme; design: method as in doi:10.1016/s0040-4039(97)01193-3; settings: cited from earlier work
plasmin = test system: plasmin; design: method as in doi:10.1016/s0040-4039(97)01193-3; settings: cited from earlier work
[5] = test system: PC-3M prostate cancer cells; test: Transwell cell invasion assay through Matrigel; format: cell-based, human; settings: 3.3 μM, 4 days, Transwell with Matrigel
Experimental: (§3) PC-3M prostate cancer cells[46] were cultured in Ham’s F12 Nutrient Mix with GlutaMAX (Gibco), supplemented with 10% fetal calf serum (FCS), 100 IU mL^–1 penicillin, 100 μg mL^–1 streptomycin, and 0.15% sodium bicarbonate at 37 °C in a humidified, CO2-controlled (5%) incubator. For the invasion assay, PC-3M cells (1.45 × 10^5) in a serum-free medium containing 0 or 3.3 μM suomilide were added into polycarbonate membrane Transwell inserts with 8.0 μm pore size (Thermo Fisher) covered with 100 μL of the phenol red-free Matrigel basement membrane matrix (Corning) diluted 1:30 with phosphate-buffered saline. The inserts were placed into a 24-well plate containing 750 μL of the culture medium with 10% FCS and incubated for 4 days at 37 °C in a humidified, CO2-controlled (5%) incubator. Matrigel and the noninvasive cells were removed using cotton swabs, and the membranes were stained with 0.09% crystal violet for 10 min. The experiment was performed twice, both with four replicates (n = 2). The invasion was quantitated from microscopic images (three panels from each of the replicates) using Fiji ImageJ. […] After 3 days, 10 μL/well CCK-8 solution (Cell Counting Kit-8, Dojindo) was added, and absorbance at 450 nm was measured after 1.5 h incubation. […]

[6] = test system: PC-3M prostate cancer cells; test: Cell proliferation assay (CCK-8); format: cell-based, human; settings: 3.3 μM, 3 days, cells on plastic surface
Experimental: as §3

thrombin = test system: thrombin; design: method as in doi:10.1016/s0040-4039(97)01193-3; settings: cited from earlier work
human plasmin = biological target: T8, human plasmin (Homo sapiens, UniProt P00747); test: Serine protease inhibition, chromogenic substrate S-2251; format: biochemical; settings: read-out: IC50, human plasmin
T8 construct: purchased Sigma
Experimental: as §1

trypsin-3 [7] = biological target: T5, trypsin-3; test: Surface plasmon resonance (Biacore) kinetic analysis; format: binding; settings: SPR
Experimental: (§4) The binding of suomilide to trypsin-1 and -3 was analyzed with surface plasmon resonance in Biacore 2000 instrumentation (Cytiva). […] The binding was analyzed using Tris-buffered saline (pH 7.4) containing 0.01% DMSO as the running buffer and a flow rate of 30 μL min^–1. The kinetics of the suomilide interaction with the trypsins were measured by varying suomilide concentrations from 250 to 4000 nM with a contact time of 5 min and a dissociation phase of 20 min. After the completion of the dissociation phase, the flow cells were regenerated with 10 mM Glycine, pH 1.7. The data were evaluated by first subtracting the sensorgrams obtained from the trypsin-3 mutant control flow cell from those obtained from the flow cells containing trypsin-1 or -3 for each suomilide concentration separately and overlaying the resulting sensorgrams for each ligand. Association and dissociation rate constants were obtained by the Langmuir global fit model (BiaEvaluation Software, Cytiva). The residence time was calculated as a reciprocal of the […].

trypsin-1 [8] = biological target: T7, trypsin-1; test: as above; format: binding; settings: SPR
Experimental: as §4

all three human trypsins = test system: all three human trypsins; design: method as in PMID 28463992; settings: equally inhibits all three human trypsins; cited from earlier work

T3 sequence (P03952 391-638 limits assumed): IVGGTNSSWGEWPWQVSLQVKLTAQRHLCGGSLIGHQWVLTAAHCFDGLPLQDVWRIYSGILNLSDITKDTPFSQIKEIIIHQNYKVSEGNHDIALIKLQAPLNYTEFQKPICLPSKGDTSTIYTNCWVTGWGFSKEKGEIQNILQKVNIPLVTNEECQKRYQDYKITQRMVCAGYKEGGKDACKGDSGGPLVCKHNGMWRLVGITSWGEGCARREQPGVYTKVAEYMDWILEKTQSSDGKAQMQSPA
T3 sequence (P03952 20-390 partner limits assumed): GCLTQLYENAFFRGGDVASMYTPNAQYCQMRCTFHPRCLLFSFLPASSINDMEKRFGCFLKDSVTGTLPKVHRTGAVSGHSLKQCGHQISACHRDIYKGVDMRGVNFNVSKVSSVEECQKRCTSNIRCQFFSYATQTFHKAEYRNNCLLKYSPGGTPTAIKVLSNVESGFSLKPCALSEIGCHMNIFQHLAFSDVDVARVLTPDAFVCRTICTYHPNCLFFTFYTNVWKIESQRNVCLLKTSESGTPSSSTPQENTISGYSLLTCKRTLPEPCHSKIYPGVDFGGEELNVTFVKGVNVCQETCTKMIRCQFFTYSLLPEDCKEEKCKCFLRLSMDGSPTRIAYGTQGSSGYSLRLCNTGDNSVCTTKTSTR
T4 sequence (P00742 235-488 limits assumed): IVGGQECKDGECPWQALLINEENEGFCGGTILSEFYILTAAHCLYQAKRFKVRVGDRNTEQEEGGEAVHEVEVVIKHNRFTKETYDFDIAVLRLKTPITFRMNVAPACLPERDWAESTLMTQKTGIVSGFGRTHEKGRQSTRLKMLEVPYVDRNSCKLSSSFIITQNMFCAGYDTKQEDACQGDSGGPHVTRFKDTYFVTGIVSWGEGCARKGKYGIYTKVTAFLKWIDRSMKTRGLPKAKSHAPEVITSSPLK
T4 sequence (P00742 41-179 partner limits assumed): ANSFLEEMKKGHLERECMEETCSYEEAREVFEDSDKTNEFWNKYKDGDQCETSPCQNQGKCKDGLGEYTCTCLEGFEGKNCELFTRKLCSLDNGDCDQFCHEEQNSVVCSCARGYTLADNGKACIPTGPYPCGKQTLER
T6 sequence (P07478 24-247): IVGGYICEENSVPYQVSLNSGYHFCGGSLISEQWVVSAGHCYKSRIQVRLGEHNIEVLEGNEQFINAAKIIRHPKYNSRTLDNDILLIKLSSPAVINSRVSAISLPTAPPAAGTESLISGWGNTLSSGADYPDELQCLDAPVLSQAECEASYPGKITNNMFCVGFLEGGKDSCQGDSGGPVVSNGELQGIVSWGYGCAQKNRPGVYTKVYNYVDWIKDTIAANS
T8 sequence (P00747 581-810 limits assumed): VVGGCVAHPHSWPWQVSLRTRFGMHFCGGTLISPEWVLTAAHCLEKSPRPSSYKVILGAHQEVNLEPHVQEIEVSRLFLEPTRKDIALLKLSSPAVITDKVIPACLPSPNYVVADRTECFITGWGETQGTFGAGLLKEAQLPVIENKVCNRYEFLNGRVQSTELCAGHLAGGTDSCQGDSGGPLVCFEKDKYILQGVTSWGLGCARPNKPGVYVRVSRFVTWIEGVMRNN
T8 sequence (P00747 97-580 partner limits assumed): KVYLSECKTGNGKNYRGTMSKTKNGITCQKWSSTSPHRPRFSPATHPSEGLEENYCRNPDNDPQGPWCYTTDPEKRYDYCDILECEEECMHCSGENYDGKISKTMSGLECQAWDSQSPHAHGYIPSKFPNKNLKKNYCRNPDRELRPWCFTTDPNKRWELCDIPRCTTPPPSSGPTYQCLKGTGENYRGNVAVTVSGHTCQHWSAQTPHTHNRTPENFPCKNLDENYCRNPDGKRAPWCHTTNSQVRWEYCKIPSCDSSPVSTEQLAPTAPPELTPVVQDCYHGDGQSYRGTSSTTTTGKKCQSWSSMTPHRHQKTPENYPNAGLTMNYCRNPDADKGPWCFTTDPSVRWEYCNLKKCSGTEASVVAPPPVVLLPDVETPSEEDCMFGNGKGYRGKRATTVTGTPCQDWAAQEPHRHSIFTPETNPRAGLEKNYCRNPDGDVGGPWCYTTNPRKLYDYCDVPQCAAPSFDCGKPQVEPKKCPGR

Q: Which results are given for `CCCCCC(=O)OCC1OC(OC2CC3C(O)C4(C2)OC(=O)NC4C(C(=O)NCCC2=CCN(C(=N)N)C2)N3C(=O)C(NC(=O)C(COS(=O)(=O)O)OC)C(C)CC)C(OC(=O)CCCCC)C(O)C1O` (stereo not drawn) [suomilide]?
A: IC50 (human thrombin): > 12500 nM; IC50 (human urokinase): 7100 ± 1360 nM; IC50 (human plasma kallikrein): 82 ± 24 nM; IC50 (human Factor Xa): 114 ± 2 nM; IC50 (trypsin-3 [1]): 11.5 nM; IC50 [2]: 4.7 nM; IC50 (trypsin-1 [3]): 104 nM; inhibition of trypsin (concentration range) [4]: low micromolar concentrations; IC50 ([4]; unspecified, most likely non-human trypsin): 1800 nM; inhibition of plasmin (concentration range) (plasmin): low micromolar concentrations; effect on PC-3M cell invasion [5]: inhibited the invasion; also recorded: significantly inhibited; effect on PC-3M cell proliferation [6]: without affecting cell proliferation; also recorded: did not affect; inhibition of thrombin (concentration range) (thrombin): low micromolar concentrations; IC50 (human plasmin): 7.6 ± 2.3 nM; kon (trypsin-3 [7]; immobilized trypsin-3, Langmuir global fit, read-out: ka (association rate constant), trypsin-3): 12000 M⁻¹ s⁻¹; koff (trypsin-3 [7]; immobilized trypsin-3, Langmuir global fit, read-out: kd (dissociation rate constant), trypsin-3): 0.00029 s⁻¹; residence time (trypsin-3 [7]; calculated as reciprocal of the dissociation constant, read-out: residence time (τ), trypsin-3): 57 min; kon (trypsin-1 [8]; immobilized trypsin-1, Langmuir global fit, read-out: ka (association rate constant), trypsin-1): 33000 M⁻¹ s⁻¹; koff (trypsin-1 [8]; immobilized trypsin-1, Langmuir global fit, read-out: kd (dissociation rate constant), trypsin-1): 0.011 s⁻¹; residence time (trypsin-1 [8]; calculated as reciprocal of the dissociation constant, read-out: residence time (τ), trypsin-1): 1.5 min

Q: With `N=C(N)c1ccc(/N=N/Nc2ccc(C(=N)N)cc2)cc1` [diminazene] as the compound, how does the “inhibition of human trypsins (concentration range)” value (all three human trypsins) read?
A: Its value is “micromolar concentrations”.
